Reference: PMC10324308, “Biodegradation of Amphipathic Fluorinated Peptides Reveals a New Bacterial Defluorinating Activity and a New Source of Natural Organofluorine Compounds” (Environmental Science & Technology, 2023)
Where a SMILES comes first, the peptide text is derived from it. [ ]: non-standard residue; d: D form. Abu(4,4,4-F3) = N[C@@H](CC(F)(F)F)C(=O)O; Abu(4,4-F2) = N[C@@H](CC(F)F)C(=O)O; 4Abz = Nc1ccc(C(=O)O)cc1; Abu = CC[C@H](N)C(=O)O

Legend:
β-trypsin (pancreas) = assay: Peptide digestion assay with β-trypsin; format: in vitro ADME; conditions: after 2 h; 500 μM peptide, trypsin 0.075 μM, 50 mM bis-tris propane + 20 mM CaCl2, pH 8, 37 °C, 300 rpm; HPLC (DAD-280 nm); triplicates
Method: (§1) Freeze-dried peptides AbuK16, MfeGlyK16, DfeGlyK16, and TfeGlyK16 were dissolved in 100 μL of buffer (50 mM bis-tris propane + 20 mM CaCl2, pH 8) to a final concentration of 500 μM. The peptides were incubated with different proteolytic enzymes (10 μL in buffer): trypsin (0.075 μM), elastase (0.45 μM), proteinase K (0.075 μM), and bromelain (4.5 μM). The experiments were incubated at either 37 °C (trypsin and proteinase K) or 30 °C (elastase and bromelain) in a Thriller thermoshaker-incubator (VWR International, Radnor, PA, USA) with shaking at 300 rpm. Aliquots (15 μL) were taken at fixed time points and quenched with 90 μL of a solution of 30% acetic acid in water containing 133 μM Ac-[4]Abz-Gly-OH as a reference. Peptide degradation was monitored by high-performance liquid chromatography (HPLC) using a Hitachi Primaide UV-HPLC system (VWR/Hitachi, Darmstadt, Germany). A Kinetex RP-C18 ([…], 100 Å, 250 × 4.6 mm, Phenomenex, USA) column and a SecurityGuard Cartridge Kit equipped with a C18 cartridge (4 × 3.0 mm, Phenomenex, USA) as a pre-column was used. The mobile phases employed were 0.1% aqueous […] (TFA) (solvent A) and acetonitrile + 0.1% TFA (solvent B). The solvent conditions for analysis were as follows: 0–5 min, 5% B; 5–20 min, 5–90% B; 20–23 min, 90–100% B; 23–25 min, 100% B; 25–27 min, 100–5% B; and 27–30 min, 5% B. In all cases, the peaks corresponding to each peptide sample (full-length peptides) and the reference sample were integrated and used to determine the amount of the substrate still present in solution. The content of starting material after 5 min was termed as absolute amount for simplicity. All experiments were performed in triplicates, and error bars were obtained as standard deviations of measurements.
(§2) Figure 2 Proteolytic digestion of AbuK16, MfeGlyK16, DfeGlyK16, and TfeGlyK16 by the serine proteases β-trypsin, elastase, proteinase K, and bromelain (pineapple stem) in 50 mM bis-tris propane + 20 mM CaCl2, pH 8, at 37 °C (β-trypsin and proteinase K) or 30 °C (elastase and bromelain). Real-time detection of peptide proteolysis and calculation of remaining peptide amounts were accomplished by HPLC analysis (DAD-280 nm).

[1] = target: T1, bromelain (pineapple stem) (Ananas comosus, UniProt P14518); assay: Peptide digestion assay with bromelain; format: in vitro ADME; conditions: 500 μM peptide, bromelain 4.5 μM, 50 mM bis-tris propane + 20 mM CaCl2, pH 8, 30 °C, HPLC (DAD-280 nm); for digestion by bromelain: 300 rpm, triplicates
T1 construct: purchased Sigma-Aldrich (Steinheim, Germany); host or cells: pineapple stem
T1 sequence (P14518 1-212): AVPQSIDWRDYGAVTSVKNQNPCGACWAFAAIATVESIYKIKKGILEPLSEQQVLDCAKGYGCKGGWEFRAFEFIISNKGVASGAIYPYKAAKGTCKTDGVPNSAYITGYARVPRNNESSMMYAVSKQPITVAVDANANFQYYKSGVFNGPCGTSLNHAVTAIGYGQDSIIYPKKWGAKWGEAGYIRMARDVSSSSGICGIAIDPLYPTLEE
Method: as §1, §2

elastase (pancreas) = target: T2, elastase (pancreas) (Sus scrofa, UniProt P00772); assay: Peptide digestion assay with elastase; format: in vitro ADME; conditions: after 4 h; 500 μM peptide, elastase 0.45 μM, 50 mM bis-tris propane + 20 mM CaCl2, pH 8, 30 °C, 300 rpm; HPLC (DAD-280 nm); triplicates
T2 construct: purchased Sigma-Aldrich (Steinheim, Germany); host or cells: pancreas
T2 sequence (P00772 27-266): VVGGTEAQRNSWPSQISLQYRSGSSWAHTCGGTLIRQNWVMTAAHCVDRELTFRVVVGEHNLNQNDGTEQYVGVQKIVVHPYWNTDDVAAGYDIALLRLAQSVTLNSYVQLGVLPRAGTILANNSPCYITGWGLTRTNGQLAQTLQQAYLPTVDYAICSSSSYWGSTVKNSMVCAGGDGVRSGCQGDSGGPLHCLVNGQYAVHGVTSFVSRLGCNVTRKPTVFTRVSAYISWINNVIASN
Method: as §1, with “The solvent conditions for analysis were as follows: 0–5 min, 5% B; 5–20 min, 5–90% B; 20–23 min, 90–100% B; 23–25 min, 100% B; 25–27 min, 100–5% B; and 27–30 min, 5% B. In all cases, the peaks corresponding to each peptide sample (full-length peptides) and the reference sample were integrated and used to determine the amount of the substrate still present in solution. The content of starting material after 5 min was termed as absolute amount for simplicity. All experiments were performed in triplicates, and error bars were obtained as standard deviations of measurements.” left out

proteinase K = target: T3, proteinase K (Parengyodontium album, UniProt P06873); assay: Peptide digestion assay with proteinase K; format: in vitro ADME, Tritirachium album; conditions: 500 μM peptide, proteinase K 0.075 μM, 50 mM bis-tris propane + 20 mM CaCl2, pH 8, 37 °C, HPLC (DAD-280 nm), triplicates; for proteolytic stability against proteinase K: after 4 h, 300 rpm
T3 construct: purchased Sigma-Aldrich (Steinheim, Germany)
T3 sequence (P06873 106-384): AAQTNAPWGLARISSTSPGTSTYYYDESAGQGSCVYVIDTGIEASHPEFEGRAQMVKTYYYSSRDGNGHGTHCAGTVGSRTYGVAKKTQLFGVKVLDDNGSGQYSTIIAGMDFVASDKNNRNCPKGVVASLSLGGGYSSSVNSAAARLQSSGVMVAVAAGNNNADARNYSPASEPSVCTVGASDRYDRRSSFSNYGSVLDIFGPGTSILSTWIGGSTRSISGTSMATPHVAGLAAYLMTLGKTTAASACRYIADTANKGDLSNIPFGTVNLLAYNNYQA
Method: as §1
Figure 2 Proteolytic digestion of AbuK16, MfeGlyK16, DfeGlyK16, and TfeGlyK16 by the serine proteases β-trypsin, elastase, proteinase K, and bromelain (pineapple stem) in 50 mM bis-tris propane + 20 mM CaCl2, pH 8, at 37 °C (β-trypsin and proteinase K) or 30 °C (elastase and bromelain). […]

Compound | remaining full-length peptide after digestion by β-trypsin (β-trypsin (pancreas)) | digestion by bromelain [1] | remaining full-length peptide after digestion by elastase (elastase (pancreas)) | proteolytic stability against proteinase K (proteinase K) | remaining peptide after digestion by bromelain ([1]; after 3 days incubation) | digestion by proteinase K (proteinase K; within 24 h)
CC[C@H](NC(C)=O)C(=O)N[C@@H](CCCCN)C(=O)N[C@@H](CC)C(=O)N[C@@H](CCCCN)C(=O)N[C@@H](CC)C(=O)N[C@@H](CCCCN)C(=O)N[C@@H](CC)C(=O)N[C@@H](CCCCN)C(=O)N[C@@H](CC)C(=O)N[C@@H](CCCCN)C(=O)N[C@@H](CC)C(=O)N[C@@H](CCCCN)C(=O)N[C@@H](CC)C(=O)N[C@@H](CCCCN)C(=O)N[C@@H](CC)C(=O)N[C@@H](CCCCN)C(=O)Nc1ccc(C(N)=O)cc1 [AbuK16, Ac-(Abu-Lys)8-[4]Abz-NH2] (Ac-[Abu]K[Abu]K[Abu]K[Abu]K[Abu]K[Abu]K[Abu]K[Abu]K[4Abz]-NH2) | comparably higher amounts of peptide were detected | digested | – | – | – | –
CC(=O)N[C@@H](CC(F)F)C(=O)N[C@@H](CCCCN)C(=O)N[C@@H](CC(F)F)C(=O)N[C@@H](CCCCN)C(=O)N[C@@H](CC(F)F)C(=O)N[C@@H](CCCCN)C(=O)N[C@@H](CC(F)F)C(=O)N[C@@H](CCCCN)C(=O)N[C@@H](CC(F)F)C(=O)N[C@@H](CCCCN)C(=O)N[C@@H](CC(F)F)C(=O)N[C@@H](CCCCN)C(=O)N[C@@H](CC(F)F)C(=O)N[C@@H](CCCCN)C(=O)N[C@@H](CC(F)F)C(=O)N[C@@H](CCCCN)C(=O)Nc1ccc(C(N)=O)cc1 [DfeGlyK16, Ac-(DfeGly-Lys)8-[4]Abz-NH2] (Ac-[Abu(4,4-F2)]K[Abu(4,4-F2)]K[Abu(4,4-F2)]K[Abu(4,4-F2)]K[Abu(4,4-F2)]K[Abu(4,4-F2)]K[Abu(4,4-F2)]K[Abu(4,4-F2)]K[4Abz]-NH2) | mostly consumed | digested | lower amounts of DfeGlyK16 and TfeGlyK16 detected than AbuK16 and MfeGlyK16 | – | – | –
CC(=O)N[C@@H](CCF)C(=O)N[C@@H](CCCCN)C(=O)N[C@@H](CCF)C(=O)N[C@@H](CCCCN)C(=O)N[C@@H](CCF)C(=O)N[C@@H](CCCCN)C(=O)N[C@@H](CCF)C(=O)N[C@@H](CCCCN)C(=O)N[C@@H](CCF)C(=O)N[C@@H](CCCCN)C(=O)N[C@@H](CCF)C(=O)N[C@@H](CCCCN)C(=O)N[C@@H](CCF)C(=O)N[C@@H](CCCCN)C(=O)N[C@@H](CCF)C(=O)N[C@@H](CCCCN)C(=O)Nc1ccc(C(N)=O)cc1 [MfeGlyK16, Ac-(MfeGly-Lys)8-[4]Abz-NH2] | comparably higher amounts of peptide were detected | digested | – | higher proteolytic stability of MfeGlyK16 than that for AbuK16 and DfeGlyK16 | – | –
CC(=O)N[C@@H](CC(F)(F)F)C(=O)N[C@@H](CCCCN)C(=O)N[C@@H](CC(F)(F)F)C(=O)N[C@@H](CCCCN)C(=O)N[C@@H](CC(F)(F)F)C(=O)N[C@@H](CCCCN)C(=O)N[C@@H](CC(F)(F)F)C(=O)N[C@@H](CCCCN)C(=O)N[C@@H](CC(F)(F)F)C(=O)N[C@@H](CCCCN)C(=O)N[C@@H](CC(F)(F)F)C(=O)N[C@@H](CCCCN)C(=O)N[C@@H](CC(F)(F)F)C(=O)N[C@@H](CCCCN)C(=O)N[C@@H](CC(F)(F)F)C(=O)N[C@@H](CCCCN)C(=O)Nc1ccc(C(N)=O)cc1 [TfeGlyK16, Ac-(TfeGly-Lys)8-[4]Abz-NH2] (Ac-[Abu(4,4,4-F3)]K[Abu(4,4,4-F3)]K[Abu(4,4,4-F3)]K[Abu(4,4,4-F3)]K[Abu(4,4,4-F3)]K[Abu(4,4,4-F3)]K[Abu(4,4,4-F3)]K[Abu(4,4,4-F3)]K[4Abz]-NH2) | mostly consumed | resistant to this protease | lower amounts of DfeGlyK16 and TfeGlyK16 detected than AbuK16 and MfeGlyK16 | pronounced stability | noticeable amounts of this peptide were still present | largely digested
